Measurements from ChEMBL document CHEMBL1124148 (J Med Chem, 1988).

Key:
L1210 = experiment: Inhibitory concentration against growth of L1210 cell line; assay type: functional, cell-based; conditions: Mus musculus
Dihydrofolate reductase = molecular target: T1, Dihydrofolate reductase (Mus musculus, UniProt P00375)
T1 sequence (P00375 whole entry): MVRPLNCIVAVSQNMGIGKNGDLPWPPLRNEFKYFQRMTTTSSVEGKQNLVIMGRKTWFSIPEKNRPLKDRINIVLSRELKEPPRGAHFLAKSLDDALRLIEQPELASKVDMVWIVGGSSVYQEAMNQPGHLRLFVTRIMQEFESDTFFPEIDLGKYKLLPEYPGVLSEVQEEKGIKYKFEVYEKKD
Description: Inhibition of dihydrofolate reductase (DHFR) from murine leukemia cells

[1] = Inhibition of FPGS from mouse liver in the presence of folic acid; assay type: functional
L1210 ( R81) = experiment: Inhibitory concentration against growth of L1210/R81 cell line; assay type: functional, cell-based; conditions: Mus musculus
[2] = Cell-growth inhibition against SCC25 cell line; assay type: functional, cell-based; conditions: Homo sapiens, SCC-25
[3] = Cell-growth inhibition against SCC25/R1 cell line; assay type: functional, cell-based; conditions: Homo sapiens, SCC-25
[4] = Cell-growth inhibition against SCC15 cell line; assay type: functional, cell-based; conditions: Homo sapiens, SCC-15
[5] = Cell-growth inhibition against SCC15/R1 cell line; assay type: functional, cell-based; conditions: Homo sapiens, SCC-15
SCC-25 [6] = experiment: Inhibitory concentration against growth of SCC25/R1 cell line; assay type: functional, cell-based; conditions: Homo sapiens
SCC-15 [7] = experiment: Inhibitory concentration against growth of SCC15 cell line; assay type: functional, cell-based; conditions: Homo sapiens
SCC-15 [8] = experiment: Inhibitory concentration against growth of SCC15/R1 cell line; assay type: functional, cell-based; conditions: Homo sapiens
SCC-25 [9] = experiment: Inhibitory concentration against growth of SCC25 cell line; assay type: functional, cell-based; conditions: Homo sapiens

| SMILES | IC50 (L1210) | IC50 (Dihydrofolate reductase) | Ki [1] | IC50 (L1210 ( R81)) | also measured |
| --- | --- | --- | --- | --- | --- |
| Nc1nc(N)c2nc(CNc3ccc(C(=O)N[C@@H](CCCNC(=O)c4ccc(Cl)c(Cl)c4)C(=O)O)cc3)cnc2n1 | 0.032 µM | 0.045 µM |  |  |  |
| NCCCC(NC(=O)c1ccc(N(C=O)Cc2cnc3nc(N)nc(N)c3n2)cc1)C(=O)O (stereo not given) |  |  | 0.65 µM |  |  |
| Nc1nc(N)c2nc(CNc3ccc(C(=O)NC(CCCNC(=O)c4ccccc4C(=O)O)C(=O)O)cc3)cnc2n1 (stereo not given) | 0.00075 µM |  |  |  | IC50 [2]: 0.00096 µM; IC50 [3]: 0.0013 µM; IC50 [4]: 0.0011 µM; IC50 [5]: 0.004 µM |
| NCCCC(NC(=O)c1ccc(NCc2cnc3nc(N)nc(N)c3n2)cc1)C(=O)O (stereo not given) |  |  | 0.15 µM |  |  |
| Nc1nc(N)c2nc(CNc3ccc(C(=O)NC(CCCNC(=O)CCC(=O)O)C(=O)O)cc3)cnc2n1 (stereo not given) |  |  | 44 µM |  |  |
| CN(Cc1cnc2nc(N)nc(N)c2n1)c1ccc(C(=O)N[C@@H](CCC(=O)O)C(=O)O)cc1 [METHOTREXATE] |  |  |  | 200 µM | IC50 (SCC-25 [6]): 0.15 µM; IC50 (SCC-15 [7]): 0.038 µM; IC50 (SCC-15 [8]): 0.58 µM; IC50 (SCC-25 [9]): 0.0075 µM |
| CN(Cc1cnc2nc(N)nc(N)c2n1)c1ccc(C(=O)NC(CCC(=O)OC(C)(C)C)C(=O)O)cc1 (stereo not given) |  |  |  |  | IC50 [2]: 0.4 µM; IC50 [3]: 0.78 µM; IC50 [4]: 0.6 µM; IC50 [5]: 1.3 µM |
| CC(=O)NCCCC(NC(=O)c1ccc(NCc2cnc3nc(N)nc(N)c3n2)cc1)C(=O)O (stereo not given) | 0.017 µM | 0.028 µM | 68 µM | 81 µM |  |
| Nc1nc(N)c2nc(CNc3ccc(C(=O)NC(CCCNC(=O)c4ccc(Cl)cc4)C(=O)O)cc3)cnc2n1 (stereo not given) | 0.0032 µM | 0.028 µM |  | 27 µM |  |

Further lines, with some results ahead:

| IC50 (L1210) | IC50 (Dihydrofolate reductase) | Ki [1] | IC50 (L1210 ( R81)) | SMILES | also measured |
| --- | --- | --- | --- | --- | --- |
| 0.02 µM | 0.034 µM | > 1000 µM | 156 µM | Nc1nc(N)c2nc(CN(C=O)c3ccc(C(=O)NC(CCCNC(=O)c4ccccc4)C(=O)O)cc3)cnc2n1 (stereo not given) |  |
| 0.00089 µM | 0.027 µM | > 100 µM | 17 µM | Nc1nc(N)c2nc(CNc3ccc(C(=O)NC(CCCNC(=O)c4ccccc4)C(=O)O)cc3)cnc2n1 (stereo not given) |  |
| 3.2 µM | 0.056 µM |  | > 200 µM | Nc1nc(N)c2nc(CN(C=O)c3ccc(C(=O)NC(CCCNC(=O)c4ccc(Cl)c(Cl)c4)C(=O)O)cc3)cnc2n1 (stereo not given) |  |
|  |  | > 100 µM |  | Nc1nc(N)c2nc(CN(C=O)c3ccc(C(=O)NC(CCCNC(=O)CCC(=O)O)C(=O)O)cc3)cnc2n1 (stereo not given) |  |
| 0.2 µM | 0.015 µM | > 100 µM | > 200 µM | Nc1nc(N)c2nc(CN(C=O)c3ccc(C(=O)NC(CCCNC(=O)c4ccc(Cl)cc4)C(=O)O)cc3)cnc2n1 (stereo not given) |  |
| 0.41 µM | 0.053 µM |  | 230 µM | CC(=O)NCCCC(NC(=O)c1ccc(N(C=O)Cc2cnc3nc(N)nc(N)c3n2)cc1)C(=O)O (stereo not given) |  |
